Experimental data published in PubChem BioAssay AID686957 (The Scripps Research Institute Molecular Screening Center, 2013).
Active and inactive are the calls of the source. How the calls were made is not given here.

Biological target: T-cell receptor (TCR)-CD3 interaction, human (TCR alpha chain TRAV4)
Assay: potency of TCR-CD3 interaction inhibitors, dose response, biochemical, fluorescence, TAMRA-labeled TCR probe (AID 686957)
Details: TCR-CD3 binding

## COc1ccc(C(=O)NNC(=S)NC(=O)c2ccc(Br)o2)cc1OC
  IC50: > 94.1 µM (inactive)

## Oc1c(Br)cc(Br)cc1/C=N/NC(=S)N[C@H]1CC2C=CC1C2 (stereo partly drawn)
  IC50: > 94.1 µM (inactive)

## CNC(=S)NNC(=O)c1oc2nc(-c3ccccc3)cc(-c3ccco3)c2c1N
  IC50: > 94.1 µM (inactive)

## Cc1cc(C(=O)N/N=C/c2cc(Cl)cc([N+](=O)[O-])c2O)n[nH]1
  IC50: > 94.1 µM (inactive)

## COc1ccc(C(=O)NNC(=S)NC(=O)c2cccnc2)cc1
  IC50: > 94.1 µM (inactive)

## O=C1/C(=C/c2ccco2)SC(=S)N1c1cccnc1
  IC50: > 94.1 µM (inactive)

## Cc1cccc(C(=O)NCC(=O)NNC(=O)c2ccccc2O)c1
  IC50: > 94 µM (inactive)

## COc1ccc(/C=C2\SC(=O)N(CC(=O)NNC(=O)c3ccccc3O)C2=O)cc1
  IC50: > 94.1 µM (inactive)

## COc1ccc(/C=N/NC(=O)c2cc(O)c(O)c(O)c2)cc1Cn1cc([N+](=O)[O-])cn1
  IC50: 3.84 µM

## CN(C)S(=O)(=O)c1cccc(NC(=O)COC(=O)c2cc(-c3cccc(Br)c3)nc3ccccc23)c1
  IC50: inactive

## Cn1c(SCC(=O)NNC(=O)c2ccccc2O)nnc1-c1ccccc1
  IC50: > 94.2 µM (inactive)

## COc1ccc(NS(=O)(=O)c2cc(NC(=O)/C=C/c3cc(OC)c(OC)c(OC)c3)ccc2N2CCCCC2)cc1
  IC50: > 94.1 µM (inactive)

## COc1cc2ccccc2cc1C(=O)NNC(=O)c1ccccc1O
  IC50: > 94.2 µM (inactive)

## CNC(=S)NNC(=O)c1cccn(Cc2ccc(Cl)cc2Cl)c1=O
  IC50: > 94.1 µM (inactive)

## O=c1cc(-c2ccc(O)c(O)c2)oc2ccc3ccccc3c12
  IC50: > 94.2 µM (inactive)

## CN=c1scc(C)n1/N=C/c1ccc(O)c(O)c1O
  IC50: inactive

## O=C(NNC(=O)c1ccc2ccccc2c1O)c1cccs1
  IC50: > 94.1 µM (inactive)

## Cc1onc(-c2ccccc2)c1C(=O)NN=Cc1cc(Cl)cc(Cl)c1O
  IC50: > 94 µM (inactive)

## NNC(=O)c1nc[nH]c1C(=O)Nc1ccccn1
  IC50: > 94.2 µM (inactive)

## COc1cc(Br)cc2cc(C(=O)N3CCN(C(=O)c4ccco4)CC3)c(=O)oc12
  IC50: > 94.1 µM (inactive)

## O=C(CCCN1C(=O)/C(=C/c2cccs2)SC1=S)NNC(=O)c1ccccc1O
  IC50: > 94.1 µM (inactive)

## O=C1NC(=S)NC1=Cc1ccco1
  IC50: > 94.1 µM (inactive)

## c1coc(-c2ccc3nncn3c2)c1
  IC50: inactive

## O=C(NNC(=O)c1cc2ccccc2cc1O)Nc1ccc(F)cc1F
  IC50: > 94.1 µM (inactive)

## Cc1noc(C)c1COc1ccc(C(=O)NNC(=O)c2ccccc2O)cc1
  IC50: > 94.1 µM (inactive)

## O=C(NC(C(=O)N/N=C/c1cc([N+](=O)[O-])ccc1O)c1n[nH]c(=O)c2ccccc12)c1ccccc1 (stereo not drawn)
  IC50: > 94.1 µM (inactive)

## C/C(=N\NC(=O)c1nnn(-c2nonc2N)c1CN(C)c1ccccc1)c1ccccc1O
  IC50: > 94.1 µM (inactive)

## Cc1cc2oc3ccc(NCCCn4ccnc4)cc3c(=O)c2cc1C
  IC50: > 94.1 µM (inactive)

## Cc1ccc(/C=C2\SC(=S)N(CCC(=O)NNC(=O)c3ccccc3O)C2=O)cc1
  IC50: > 94.1 µM (inactive)

## O=C(N/N=C/c1cc(Br)cc(Br)c1O)c1cccc(N2CCCC2=O)c1
  IC50: > 94.1 µM (inactive)

## O=C(CNC(=O)c1cccc(Br)c1)N/N=C/c1cc(Br)cc(Br)c1O
  IC50: > 94.1 µM (inactive)

## O=C(CP(=O)(c1ccccc1)c1ccccc1)N/N=C/c1cc(Br)cc(Br)c1O
  IC50: > 94.2 µM (inactive)

## Cc1ccc(S(=O)(=O)N2CCC(C(=O)NNC(=O)c3ccccc3O)CC2)cc1
  IC50: > 94.1 µM (inactive)

## Cc1c(CC(=O)N2CCN(C(=O)C3COc4ccccc4O3)CC2)c(=O)oc2c(O)c(O)ccc12 (stereo not drawn)
  IC50: 6.03 µM

## COc1ccccc1C(=O)NNC(=O)c1ccc(NC(=O)CC(C)C)cc1
  IC50: > 94.1 µM (inactive)

## Cc1cc(=O)oc2cc(OCC(=O)N/N=C/c3cc([N+](=O)[O-])ccc3O)ccc12
  IC50: > 94.1 µM (inactive)

## Cc1nc(S/C(=C/c2ccc(OCc3ccc(C(=O)O)cc3)cc2)C(=O)O)n[nH]1
  IC50: > 94.1 µM (inactive)

## O=[N+]([O-])c1cc(Cl)cc(/C=N/NC(=S)Nc2ccc(S(=O)(=O)N3CCOCC3)cc2)c1O
  IC50: > 94.1 µM (inactive)

## COCCn1c(=NC(=O)c2cc(-c3cccs3)nc3ccccc23)sc2cc(S(N)(=O)=O)ccc21
  IC50: > 94.1 µM (inactive)

## O=C(NNC(=S)NC(=O)c1cccnc1)c1ccc(F)cc1
  IC50: > 94.1 µM (inactive)

## CC1=NN(C(=O)c2ccccc2)C(O)(c2ccc(Br)cc2)C1 (stereo not drawn)
  IC50: > 94.2 µM (inactive)

## O=C(N/N=C/c1ccc(F)cc1)c1cc(-c2ccco2)nc2ccccc12
  IC50: > 94.1 µM (inactive)

## NC(=O)CCC1NC(=S)N(Cc2ccccc2)C1=O (stereo not drawn)
  IC50: > 94.1 µM (inactive)

## O=C(N/N=C/c1ccc(O)c(O)c1)N/N=C/c1ccc(O)c(O)c1
  IC50: 1.03 µM

## Cc1ccn2cc(-c3ccc(O)c(O)c3)nc2c1
  IC50: > 94.1 µM (inactive)

## O=C(N/N=C/c1cc(Br)cc(Cl)c1O)c1ccc2c(c1)OCO2
  IC50: > 94.1 µM (inactive)

## CNC(=S)NNC(=O)c1cccn(Cc2cccc(Cl)c2)c1=O
  IC50: > 94.1 µM (inactive)

## O=C(CCc1ccc(S(=O)(=O)N2CCOCC2)cc1)N/N=C/c1ccc(O)c(O)c1O
  IC50: > 94.1 µM (inactive)

## COC(=O)Nc1ccc(S(=O)(=O)NNC(=O)c2c(O)c3ccccc3[nH]c2=O)cc1
  IC50: > 94.1 µM (inactive)

## Cc1cc(Br)cc(/C=N/NC(=O)c2ccc3c(c2)OCO3)c1O
  IC50: > 94.1 µM (inactive)

## O=C(N/N=C/c1cc(Cl)cc([N+](=O)[O-])c1O)c1ccc2c(c1)OCO2
  IC50: > 94.1 µM (inactive)

## O=C(CCN1CCN(c2ccccc2)CC1)N/N=C/c1ccc(O)c(O)c1O
  IC50: > 94.1 µM (inactive)

## CC(=O)c1ccc(NC(=O)CN2C(=O)/C(=C/C(C)=C/c3ccccc3)SC2=S)cc1
  IC50: > 94.1 µM (inactive)

## Cc1ccc(C(=O)NNC(=O)c2ccc3ccccc3c2O)cc1
  IC50: > 94 µM (inactive)

## COc1cc(/C=N/NC(=O)c2cc(O)cc(O)c2)ccc1OC(=O)c1ccccc1
  IC50: > 94.1 µM (inactive)

## CCCCCCn1c(=O)c(C(=O)Nc2ncccc2O)c(O)c2ccccc21
  IC50: > 94.2 µM (inactive)

## Cc1nc(S/C(=C\c2ccc(-c3ccc(C(=O)O)c(Cl)c3)o2)C(=O)O)n[nH]1
  IC50: > 94.1 µM (inactive)

## O=C(N/N=C/c1cc(Br)ccc1O)c1cccc(N2CCCC2=O)c1
  IC50: > 94.1 µM (inactive)

## O=c1cc(-c2ccc(O)cc2)oc2cc(O)c(C3OC(CO)C(O)C(O)C3O)c(O)c12 (stereo not drawn)
  IC50: > 94.1 µM (inactive)

## Cc1nc2ccccc2c(=O)n1/N=C/c1cc(Br)cc(Br)c1O
  IC50: > 94.1 µM (inactive)

## Cc1ccc(OCC(=O)c2c(N)n(C)c(=O)n(C)c2=O)c([N+](=O)[O-])n1
  IC50: inactive

## CCN(CC(=O)Nc1c(F)cccc1F)C(=O)/C=C/c1ccc2ccccc2n1
  IC50: > 94.1 µM (inactive)

## O=C(CNC(=O)c1ccccc1Br)N/N=C\c1cc([N+](=O)[O-])cc(Br)c1O
  IC50: > 94.1 µM (inactive)

## COc1cc(O)c(/C=N/NC(=O)c2ccncc2)c(OC)c1[N+](=O)[O-]
  IC50: > 94.1 µM (inactive)

## Nc1nnc(CC(=O)N/N=C\c2cc([N+](=O)[O-])ccc2O)s1
  IC50: > 94.1 µM (inactive)

## O=c1cc(-c2ccc(O)c(O)c2)oc2c1ccc1ccccc12
  IC50: 6.25 µM

## O=C(NNC(=S)NC(=O)c1cccs1)c1ccc(O)cc1
  IC50: > 94 µM (inactive)

## Cc1ccc(-n2c(O)c(/C=N/NC(=O)C3COc4ccccc4O3)c3ccccc3c2=O)cc1 (stereo not drawn)
  IC50: > 94.1 µM (inactive)

## Cc1cc(C)c(C)c(S(=O)(=O)N2CCC(C(=O)NNC(=O)c3ccccc3O)CC2)c1C
  IC50: > 94.1 µM (inactive)

## O=C(NNC(=O)c1ccc2ccccc2c1O)Nc1ccc(F)cc1
  IC50: > 94.1 µM (inactive)

## O=C(NNC(=O)C1CCN(S(=O)(=O)c2ccccc2C(F)(F)F)CC1)c1ccccc1O
  IC50: > 94.1 µM (inactive)

## Cc1cc([N+](=O)[O-])cc(/C=N/n2c(C)nc3ccccc3c2=O)c1O
  IC50: > 94 µM (inactive)

## O=C(CCl)NNC(=O)c1c(O)c2ccccc2[nH]c1=O
  IC50: > 94 µM (inactive)

## COc1ccc(/C=C2\SC(=O)N(CC(=O)NNC(=O)c3ccccc3O)C2=O)cc1OC
  IC50: > 94.1 µM (inactive)

## CCc1n[nH]c(=S)n1/N=C/c1cc(OC)cc([N+](=O)[O-])c1O
  IC50: inactive

## CC1CCN(S(=O)(=O)c2ccc(NC(=O)Cn3nnc(-c4ccccc4F)n3)cc2)CC1
  IC50: inactive

## COc1ccc(CC(=O)N/N=C/c2cc([N+](=O)[O-])cc(Br)c2O)cc1
  IC50: > 94.1 µM (inactive)

## O=C(NNC(=O)c1ccccc1O)c1ccccc1O
  IC50: > 93.9 µM (inactive)

## Cn1c(O)c(/C=N/NC(=O)c2cc3ccccc3cc2O)c2ccccc21
  IC50: > 94.1 µM (inactive)

## Cc1cccc(-n2c(O)c(/C=N/NC(=O)c3ccccc3Cl)c3ccccc3c2=O)n1
  IC50: > 94.1 µM (inactive)

## CCc1ccccc1NC(=O)NNC(=O)c1ccc2ccccc2c1O
  IC50: > 94.1 µM (inactive)

## COc1ccccc1N(C)S(=O)(=O)c1ccc(C(=O)NNC(=O)c2ccccc2O)cc1
  IC50: > 94.1 µM (inactive)

## COC(=O)C1CCN(C(=O)c2cc(-c3ccco3)nc3ccccc23)CC1
  IC50: > 94.1 µM (inactive)

## COC(=O)CC1(C(=O)OC)Nc2cc(Cl)c(Cl)cc2S(=O)(=O)N1O (stereo not drawn)
  IC50: > 94.2 µM (inactive)

## O=[N+]([O-])c1ccc(O)c(/C=N/NC(=S)Nc2ccc(Cl)cc2Cl)c1
  IC50: > 94.1 µM (inactive)

## COc1ccc(C(=O)NNC(=S)NC(=O)c2cccc([N+](=O)[O-])c2)cc1
  IC50: > 94.1 µM (inactive)

## C/C(=N/NC(=O)c1cc(O)c(O)c(O)c1)c1ccc([N+](=O)[O-])cc1
  IC50: > 94.1 µM (inactive)

## Cc1ccc(-c2[nH]c3cc(C(=O)NCCCn4ccnc4)ccc3c(=O)c2O)cc1
  IC50: inactive

## O=C(N/N=C/c1cccnc1)c1cc(O)c(O)c(O)c1
  IC50: > 94 µM (inactive)

## Cc1c(NC(=S)N/N=C/c2cc([N+](=O)[O-])ccc2O)c(=O)n(-c2ccccc2)n1C
  IC50: > 94.1 µM (inactive)

## COc1ccc(/C=N\NC(=O)c2cc(O)c(O)c(O)c2)cc1CN1CCN(c2ccc(F)cc2)CC1
  IC50: > 94.2 µM (inactive)

## O=C1Nc2ccccc2/C1=N\N=C\c1ccc(O)c(O)c1
  IC50: > 94.1 µM (inactive)

## O=C(CCNC(=O)c1ccc(Br)cc1)NNC(=O)c1ccccc1O
  IC50: > 94.1 µM (inactive)
